Patent US20240116985A1, “STAPLED PEPTIDES AND METHODS THEREOF” (priority 2020, published 2024)
Values after ≈ are worked out from the molar mass of the structure shown.

Test: Solubility in PBS
Type: physicochemical
Details: for solubility at 15 min: Solubility (uM)
Description: After ultracentrifugation of the PBS solution, the supernatant was analyzed by HPLC and compared to an HPLC injection 50 μM peptide DMSO solution. Solubility was determined by: [(Area of PBS peak)/(Area of DMSO peak)]*50 uM.

Solubility [µM] | solubility at 15 min [µM] | Compound
10 (≈ 20.1 µg/mL) |  | CC(=O)N1CCC[C@]12CC=CCCCC1(CCCC=CCCCOC(=O)N3CC[C@@](C(=O)N[C@@H](Cc4ccccc4C(F)(F)F)C(=O)N[C@@H](Cc4csc5ccccc45)C(=O)N[C@@H](CO)C(N)=O)(C3)NC(=O)[C@H](CC(C)C)NC(=O)[C@H](Cc3ccccc3)NC(=O)[C@H](C)NC(=O)[C@H](C)NC(=O)[C@H](Cc3cccc(C(=O)O)c3)NC(=O)[C@H](CC(=O)O)NC1=O)NC(=O)[C@H](CC(C)(C)C)NC(=O)[C@H](CC(=O)O)NC2=O (stereo partly drawn) [I-1336, PL3-Asp-Npg-B5-Asp-3COOHF-Ala-Ala-Phe-Leu-PyrS2-2F3MeF-BztA-Ser-NH2]
10 (≈ 20.6 µg/mL) |  | CC(=O)N1CCC[C@]12CC=CCCCC1(CCCC=CCCCOC(=O)N3CC[C@@](C(=O)N[C@@H](Cc4ccccc4Cl)C(=O)N[C@@H](Cc4csc5ccccc45)C(=O)N[C@@H](CCC(N)=O)C(N)=O)(C3)NC(=O)[C@H](Cc3ccccc3)NC(=O)[C@H](Cc3ccccc3)NC(=O)[C@H](C)NC(=O)[C@H](C)NC(=O)[C@H](Cc3cccc(C(=O)O)c3)NC(=O)[C@H](CC(=O)O)NC1=O)NC(=O)[C@H](CC(C)(C)C)NC(=O)[C@H](CC(=O)O)NC2=O (stereo partly drawn) [I-1338, PL3-Asp-Npg-B5-Asp-3COOHF-Ala-Ala-Phe-Phe-PyrS2-2C1F-BztA-Gln-NH2]
10 (≈ 20.1 µg/mL) |  | CC(=O)N1CCC[C@]12CC=CCCCC1(CCCC=CCCCOC(=O)N3CC[C@@](C(=O)N[C@@H](Cc4ccccc4Cl)C(=O)N[C@@H](Cc4csc5ccccc45)C(=O)N[C@@H](CO)C(N)=O)(C3)NC(=O)[C@H](Cc3ccccc3)NC(=O)[C@H](Cc3ccccc3)NC(=O)[C@H](C)NC(=O)[C@H](C)NC(=O)[C@H](Cc3cccc(C(=O)O)c3)NC(=O)[C@H](CC(=O)O)NC1=O)NC(=O)[C@H](CC(C)(C)C)NC(=O)[C@H](CC(=O)O)NC2=O (stereo partly drawn) [I-1339, PL3-Asp-Npg-B5-Asp-3COOHF-Ala-Ala-Phe-Phe-PyrS2-2C1F-BztA-Ser-NH2]
10 (≈ 20.2 µg/mL) |  | CC(=O)N1CCC[C@]12CC=CCCCC1(CCCC=CCCCOC(=O)N3CC[C@@](C(=O)N[C@@H](Cc4ccccc4Cl)C(=O)N[C@@H](Cc4csc5ccccc45)C(=O)N[C@H](CO)[C@@H](C)O)(C3)NC(=O)[C@H](Cc3ccccc3)NC(=O)[C@H](Cc3ccccc3)NC(=O)[C@H](C)NC(=O)[C@H](C)NC(=O)[C@H](Cc3cccc(C(=O)O)c3)NC(=O)[C@H](CC(=O)O)NC1=O)NC(=O)[C@H](CC(C)(C)C)NC(=O)[C@H](CC(=O)O)NC2=O (stereo partly drawn) [I-1340, PL3-Asp-Npg-B5-Asp-3COOHF-Ala-Ala-Phe-Phe-PyrS2-2C1F-BztA-Thro1]
 | 44 (≈ 84.4 µg/mL) | CC(=O)N1CCC[C@]12CC=CCCCC1(CCCC=CCCCOC(=O)N3CC[C@@](C(=O)N[C@@H](Cc4cccs4)C(=O)N[C@@H](Cc4csc5ccccc45)C(=O)N[C@@H](CCC(N)=O)C(N)=O)(C3)NC(=O)[C@H](CC(C)C)NC(=O)[C@H](Cc3ccccc3)NC(=O)[C@H](C)NC(=O)[C@H](C)NC(=O)[C@H](CC(=O)O)NC(=O)[C@H](CC(=O)O)NC1=O)NC(=O)[C@H](CC(C)(C)C)NC(=O)[C@H](CC(=O)O)NC2=O (stereo partly drawn) [I-1344, PL3-Asp-Npg-B5-Asp-Asp-Ala-Ala-Phe-Leu-PyrS2-2Thi-BztA-Gln-NH2]
 | 37 (≈ 72.2 µg/mL) | CC(=O)N1CCC[C@]12CC=CCCCC1(CCCC=CCCCOC(=O)N3CC[C@@](C(=O)N[C@@H](Cc4cccs4)C(=O)N[C@@H](Cc4csc5ccccc45)C(=O)N[C@@H](CCC(N)=O)C(N)=O)(C3)NC(=O)[C@H](Cc3ccccc3)NC(=O)[C@H](Cc3ccccc3)NC(=O)[C@H](C)NC(=O)[C@H](C)NC(=O)[C@H](CC(=O)O)NC(=O)[C@H](CC(=O)O)NC1=O)NC(=O)[C@H](CC(C)(C)C)NC(=O)[C@H](CC(=O)O)NC2=O (stereo partly drawn) [I-1345, PL3-Asp-Npg-B5-Asp-Asp-Ala-Ala-Phe-Phe-PyrS2-2Thi-BztA-Gln-NH2]
50 (≈ 95.6 µg/mL) |  | CC(=O)N1CCC[C@]12CC=CCCCC1(CCCC=CCCCOC(=O)N3CC[C@@](C(=O)N[C@H](Cc4ccccc4)C(=O)N[C@@H](Cc4csc5ccccc45)C(=O)N[C@@H](CCC(N)=O)C(N)=O)(C3)NC(=O)[C@H](CC(N)=O)NC(=O)[C@H](Cc3ccccc3)NC(=O)[C@H](C)NC(=O)[C@H](C)NC(=O)[C@H](CC(=O)O)NC(=O)[C@H](CC(=O)O)NC1=O)NC(=O)[C@H](CC(C)(C)C)NC(=O)[C@H](CC(=O)O)NC2=O (stereo partly drawn) [I-1346, PL3-Asp-Npg-B5-Asp-Asp-Ala-Ala-Phe-Asn-PyrS2-dPhe-BztA-Gln-NH2]
 | 28 (≈ 53.9 µg/mL) | CC(=O)N1CCC[C@]12CC=CCCCC1(CCCC=CCCCOC(=O)N3CC[C@@](C(=O)N[C@@H](CCc4ccccc4)C(=O)N[C@@H](Cc4csc5ccccc45)C(=O)N[C@@H](CCC(N)=O)C(N)=O)(C3)NC(=O)[C@H](CC(C)C)NC(=O)[C@H](Cc3ccccc3)NC(=O)[C@H](C)NC(=O)[C@H](C)NC(=O)[C@H](CC(=O)O)NC(=O)[C@H](CC(=O)O)NC1=O)NC(=O)[C@H](CC(C)(C)C)NC(=O)[C@H](CC(=O)O)NC2=O (stereo partly drawn) [I-1350, PL3-Asp-Npg-B5-Asp-Asp-Ala-Ala-Phe-Leu-PyrS2-hPhe-BztA-Gln-NH2]
 | 14 (≈ 27.4 µg/mL) | CC(=O)N1CCC[C@]12CC=CCCCC1(CCCC=CCCCOC(=O)N3CC[C@@](C(=O)N[C@@H](CCc4ccccc4)C(=O)N[C@@H](Cc4csc5ccccc45)C(=O)N[C@@H](CCC(N)=O)C(N)=O)(C3)NC(=O)[C@H](Cc3ccccc3)NC(=O)[C@H](Cc3ccccc3)NC(=O)[C@H](C)NC(=O)[C@H](C)NC(=O)[C@H](CC(=O)O)NC(=O)[C@H](CC(=O)O)NC1=O)NC(=O)[C@H](CC(C)(C)C)NC(=O)[C@H](CC(=O)O)NC2=O (stereo partly drawn) [I-1351, PL3-Asp-Npg-B5-Asp-Asp-Ala-Ala-Phe-Phe-PyrS2-hPhe-BztA-Gln-NH2]
 | 44 (≈ 83.7 µg/mL) | CC(=O)N1CCC[C@]12CC=CCCCC1(CCCC=CCCCOC(=O)N3CC[C@@](C(=O)N[C@@H](CC4CCCC4)C(=O)N[C@@H](Cc4csc5ccccc45)C(=O)N[C@@H](CCC(N)=O)C(N)=O)(C3)NC(=O)[C@H](CC(C)C)NC(=O)[C@H](Cc3ccccc3)NC(=O)[C@H](C)NC(=O)[C@H](C)NC(=O)[C@H](CC(=O)O)NC(=O)[C@H](CC(=O)O)NC1=O)NC(=O)[C@H](CC(C)(C)C)NC(=O)[C@H](CC(=O)O)NC2=O (stereo partly drawn) [I-1353, PL3-Asp-Npg-B5-Asp-Asp-Ala-Ala-Phe-Leu-PyrS2-CypA-BztA-Gln-NH2]
 | 48 (≈ 90.6 µg/mL) | COCCC(=O)N1CCC[C@]12CC=CCCCC1(CCCC=CCCCOC(=O)N3CC[C@@](C(=O)N[C@@H](Cc4ccccc4)C(=O)N[C@@H](Cc4csc5ccccc45)C(=O)N[C@@H](CO)C(N)=O)(C3)NC(=O)[C@H](CO)NC(=O)[C@H](Cc3ccccc3)NC(=O)[C@H](C)NC(=O)[C@H](C)NC(=O)[C@H](CC(=O)O)NC(=O)[C@H](CC(=O)O)NC1=O)NC(=O)[C@H](CC(C)(C)C)NC(=O)[C@H](CC(=O)O)NC2=O (stereo partly drawn) [I-1357, PL3-Asp-Npg-B5-Asp-Asp-Ala-Ala-Phe-Ser-PyrS2-Phe-BztA-Ser-NH2]

Compound | Solubility [µM] | solubility at 15 min [µM]
CC(=O)N1CCC[C@]12CC=CCCCC1(CCCC=CCCCOC(=O)N3CC[C@@](C(=O)N[C@@H](Cc4ccccc4C(F)(F)F)C(=O)N[C@@H](Cc4csc5ccccc45)C(=O)N[C@H](CO)[C@@H](C)O)(C3)NC(=O)[C@H](CC(C)C)NC(=O)[C@H](Cc3ccccc3)NC(=O)[C@H](C)NC(=O)[C@H](C)NC(=O)[C@H](Cc3cccc(C(=O)O)c3)NC(=O)[C@H](CC(=O)O)NC1=O)NC(=O)[C@H](CC(C)(C)C)NC(=O)[C@H](CC(=O)O)NC2=O (stereo partly drawn) [I-1337, PL3-Asp-Npg-B5-Asp-3COOHF-Ala-Ala-Phe-Leu-PyrS2-2F3MeF-BztA-Thro1] | 10 (≈ 20.2 µg/mL) | 
